Experimental data taken from patent publication US20250388605A1, “HETEROBIFUNCTIONAL COMPOUNDS AND METHODS OF TREATING DISEASE” (Halda Therapeutics OpCo, Inc., priority 2022, published 2025).

Legend:
androgen receptor = molecular target: T1, androgen receptor (Homo sapiens, UniProt P10275); assay: Assay for binding affinity to androgen receptor ([3H]methyltrienolone radioligand competition, cell cytosol); details: binding to the androgen receptor, 1 nM [3H]methyltrienolone, 24 hr at 4° C.
T1 construct: host or cells: unnamed cells, cytosolic fraction
T1 sequence (P10275 1-920): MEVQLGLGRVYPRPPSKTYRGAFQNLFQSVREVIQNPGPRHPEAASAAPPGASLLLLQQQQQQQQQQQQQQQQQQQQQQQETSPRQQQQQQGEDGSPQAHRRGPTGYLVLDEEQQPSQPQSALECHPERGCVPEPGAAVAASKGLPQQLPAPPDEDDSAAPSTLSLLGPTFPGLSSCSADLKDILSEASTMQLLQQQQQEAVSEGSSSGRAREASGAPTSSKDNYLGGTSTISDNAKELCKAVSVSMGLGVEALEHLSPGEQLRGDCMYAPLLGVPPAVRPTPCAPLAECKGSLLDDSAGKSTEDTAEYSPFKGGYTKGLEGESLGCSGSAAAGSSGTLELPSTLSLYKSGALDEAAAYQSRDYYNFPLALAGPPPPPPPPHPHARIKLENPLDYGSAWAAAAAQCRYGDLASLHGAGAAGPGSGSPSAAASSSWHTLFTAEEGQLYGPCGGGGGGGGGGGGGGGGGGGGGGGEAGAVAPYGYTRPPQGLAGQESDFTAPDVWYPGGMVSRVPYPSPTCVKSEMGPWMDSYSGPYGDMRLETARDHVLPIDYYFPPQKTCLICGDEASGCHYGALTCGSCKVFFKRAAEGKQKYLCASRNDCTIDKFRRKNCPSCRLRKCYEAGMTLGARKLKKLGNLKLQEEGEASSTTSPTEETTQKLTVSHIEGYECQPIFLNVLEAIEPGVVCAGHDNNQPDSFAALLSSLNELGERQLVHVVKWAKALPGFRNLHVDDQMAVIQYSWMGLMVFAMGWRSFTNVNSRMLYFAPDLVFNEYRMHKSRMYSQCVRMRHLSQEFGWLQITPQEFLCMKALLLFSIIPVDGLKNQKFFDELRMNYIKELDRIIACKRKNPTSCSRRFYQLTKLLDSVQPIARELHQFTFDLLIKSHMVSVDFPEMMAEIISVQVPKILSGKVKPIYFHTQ
Experimental: Fractions of cell cytosol ([…]) were incubated for 24 hr at 4° C. with 1 nM [^3H]methyltrienolone in the absence or presence of the test compound in a buffer containing 25 mM Hepes-Tris (pH 7.4), 1 mM EDTA, 10 mM Na2MoO4, 2 mM DTT, 5 μM triamcinolone acetonide, and 10% glycerol. Nonspecific binding was determined in the presence of […] testosterone. Following incubation, the samples were filtered rapidly under vacuum through glass fiber filters (GF/B, Packard) presoaked with 0.3% PEI and rinsed several times with ice-cold 50 mM Tris-HCl using a 96-sample cell harvester (Unifilter, Packard). The filters were dried then counted for radioactivity in a scintillation counter (Topcount, Packard) using a scintillation cocktail (Microscint 0, Packard). The results are expressed as a percent inhibition of the control radioligand specific binding. The standard reference compound is testosterone, which is tested in each experiment at several concentrations to obtain a competition curve from which its IC50 is calculated.

[1] = molecular target: T2, progesterone receptor ligand binding domain (GST-tagged PR LBD) (Homo sapiens, UniProt P06401); assay: FP Assay for Binding Affinity to Progesterone Receptor (PolarScreen Progesterone Receptor Competitor Assay Kit); details: fluorescence polarization, Fluormone tracer, 2 hours at room temperature
T2 construct: purchased Life Technologies A15905 or a15906
T2 sequence (P06401 679-913 limits assumed): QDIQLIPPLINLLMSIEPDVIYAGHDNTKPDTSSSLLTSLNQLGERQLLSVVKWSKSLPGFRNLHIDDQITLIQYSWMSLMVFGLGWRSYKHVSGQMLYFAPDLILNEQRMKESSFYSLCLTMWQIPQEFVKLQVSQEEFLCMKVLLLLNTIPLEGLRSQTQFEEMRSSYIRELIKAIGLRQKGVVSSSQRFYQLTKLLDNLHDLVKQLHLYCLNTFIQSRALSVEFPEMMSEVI
Outline: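 Fluorescence polarization competition: GST-tagged human PR LBD, Fluormone tracer and compound incubated 2 h at room temperature in the dark. mP plotted against compound concentration; IC50 from four-parameter non-linear fit.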

[2] = test system: T-Rex 293 cell line SC cells having increased expression of progesterone receptor isoform B protein; assay: Cellular growth inhibition assay, T-Rex 293 SC cells exposed to doxycycline (increased progesterone receptor isoform B expression), CellTiter-Glo; format: cell-based; details: T-Rex 293 SC cells with 10 ng/mL doxycycline (increased PR isoform B), 72 hours

For `Cn1cc(-c2cc(C(C)(C)O)ccc2Oc2cccc(OCCN3CCN(c4ncc(C(=O)N[C@H]5C(C)(C)[C@H](Oc6ccc(C#N)c(Cl)c6)C5(C)C)cn4)CC3)c2F)c2cc[nH]c2c1=O` [Compound I-99], the Ki (androgen receptor) was < 50 nM and the IC50 [1] was 50 to 500 nM.

In the case of `CCS(=O)(=O)Nc1ccc(Oc2ccc(OCC3CCN(c4ncc(C(=O)N[C@H]5C(C)(C)[C@H](Oc6ccc(C#N)c(Cl)c6)C5(C)C)cn4)CC3)cc2)c(-c2cn(C)c(=O)c3[nH]ccc23)c1` [Compound I-138], the GI50 [2] is reported as < 500 nM, the Ki (androgen receptor) is reported as < 50 nM and the IC50 [1] is reported as > 2500 nM.

With `Cn1cc(-c2cc(C(C)(C)O)ccc2Oc2ccc(CCC3CCN(c4ncc(C(=O)N[C@H]5C(C)(C)[C@H](Oc6ccc(C#N)c(Cl)c6)C5(C)C)cn4)CC3)cc2)c2cc[nH]c2c1=O` [Compound I-203] the GI50 [2] was < 500 nM, the Ki (androgen receptor) was 50 to 500 nM and the IC50 [1] was > 2500 nM.

In the case of `Cn1cc(-c2cc(C(C)(C)O)ccc2Oc2ccc(N3CC4(C3)CN(c3ncc(C(=O)N[C@H]5C(C)(C)[C@H](Oc6ccc(C#N)c(Cl)c6)C5(C)C)cn3)CCO4)cc2)c2cc[nH]c2c1=O` [Compound I-212], the Ki (androgen receptor) is reported as < 50 nM and the IC50 [1] is reported as 50 to 500 nM.

For `Cn1cc(-c2cc(C(C)(C)O)ccc2Oc2cccc(N3CC4(CN(c5ncc(C(=O)N[C@H]6C(C)(C)[C@H](Oc7ccc(C#N)c(Cl)c7)C6(C)C)cn5)CCO4)C3)c2F)c2cc[nH]c2c1=O` [Compound I-216], the Ki (androgen receptor) was < 50 nM and the IC50 [1] was 50 to 500 nM.

In the case of `CCS(=O)(=O)c1ccc(Oc2cccc(OCCN3CCN(c4ncc5c(n4)CN([C@H]4C(C)(C)[C@H](Oc6ccc(C#N)c(Cl)c6)C4(C)C)C5=O)CC3)c2F)c(-c2cn(C)c(=O)c3[nH]ccc23)c1` [Compound I-217], the Ki (androgen receptor) is reported as < 50 nM and the IC50 [1] is reported as < 50 nM.

`CCS(=O)(=O)c1ccc(OC(CCCCN2CCN(c3ncc(C(=O)NC4C(C)(C)C(Oc5ccc(C#N)c(Cl)c5)C4(C)C)cn3)CC2)C2CC2)c(-c2cn(C)c(=O)c3[nH]ccc23)c1` (stereo not shown) [Compound I-223, N-[3-(3-chloro-4-cyano-phenoxy)-2,2,4,4-tetramethyl-cyclobutyl]-2-[4-[5-cyclopropyl-5-[4-ethylsulfonyl-2-(6-methyl-7-oxo-1H-pyrrolo[2,3-c]pyridin-4-yl)phenoxy]pentyl]piperazin-1-yl]pyrimidine-5-carboxamide] was tested, and the Ki (androgen receptor) was < 50 nM and the IC50 [1] was 50 to 500 nM.

In the case of `Cn1cc(-c2cc(C(C)(C)O)ccc2Oc2ccc(N3CC(CC4CCN(c5ncc(C(=O)N[C@H]6C(C)(C)[C@H](Oc7ccc(C#N)c(Cl)c7)C6(C)C)cn5)CC4)C3)cc2)c2cc[nH]c2c1=O` [Compound I-232], the GI50 [2] is reported as < 500 nM, the Ki (androgen receptor) is reported as < 50 nM and the IC50 [1] is reported as 500 to 2500 nM.
